According to US11472766B2, “Lipid nanoparticle composition” (Suzhou Abogen Biosciences Co., Ltd., priority 2020, dated 2022):
One block for each molecule: values may come before it.

Tests used:
[1] = Encapsulation efficiency of lipid nanoparticles (Quant-it Ribogreen RNA quantification assay); format: physicochemical; conditions: LNP encapsulating hEPO mRNA
Protocol: (§1) Briefly, a cationic lipid provided herein, DSPC, cholesterol, and PEG-lipid were solubilized in ethanol at a molar ratio of 50:10:38.5:1.5, and mRNA were diluted in 10 to 50 mM citrate buffer, pH=4. The LNPs were prepared at a total lipid to mRNA weight ratio of approximately 10:1 to 30:1 by mixing the ethanolic lipid solution with the aqueous mRNA solution at a volume ratio of 1:3 using a microfluidic apparatus, total flow rate ranging from 9-30 mL/min. Ethanol were thereby removed and replaced by DPBS using dialysis. Finally, the lipid nanoparticles were filtered through a 0.2 μm sterile filter.
(§2) Lipid nanoparticle size were determined by dynamic light scattering using a Malvern Zetasizer Nano ZS (Malvern UK) using a 173° backscatter detection mode. The encapsulation efficiency of lipid nanoparticles were determined using a Quant-it Ribogreen RNA quantification assay kit (Thermo Fisher Scientific, UK) according to the manufacturer's instructions.

[2] = system: human erythropoietin (hEPO) mRNA; assay: Animal study: hEPO expression after tail vein injection of LNPs encapsulating hEPO mRNA (serum ELISA); format: in vivo; conditions: hEPO level, female ICR mice, 0.5 mg/kg, 6 hours post administration; for Expression at 6 h (μg/ml): class symbols, Table 3
Protocol: Lipid nanoparticles comprising compounds 1-10 encapsulating human erythropoietin (hEPO) mRNA were systemically administered to 6-8 week old female ICR mice (Xipuer-Bikai, Shanghai) at 0.5 mg/kg dose by tail vein injection and mice blood were sampled at specific time points (e.g., 6 hours) post administration. In addition to the aforementioned tested groups, lipid nanoparticles comprising dilinoleylmethyl-4-dimethylaminobutyrate (DLin-MC3-DMA, usually abbreviated to MC3) encapsulating hEPO mRNA were similarly administered at the same dose to age and gender comparative groups of mice as a positive control.
Mice were euthanized by CO2 overdoses after the last sampling time point. Serum were separated from total blood by centrifugation at 5000 g for 10 minutes at 4° C., snap-frozen and stored at −80° C. for analysis. ELSA assay were carried out using a commercial kit (DEP00, R&D systems) according to manufacturer's instructions.
Characteristics of tested lipid nanoparticles, including hEPO expression levels (μg/ml) measured from the tested group are listed the tables below and plotted in FIG. 2.

[3] = Apparent pKa of LNP formulations (TNS fluorescence assay); conditions: LNP cationic lipid/DSPC/cholesterol/DMG-PEG 50/10/38.5/1.5 mol %
Protocol: The apparent pKa of each formulation was determined using an assay based on fluorescence of 2-(p-toluidino)-6-napthalene sulfonic acid (TNS). LNP formulations comprising of cationic lipid/DSPC/cholesterol/DMG-PEG (50/10/38.5/1.5 mol %) in PBS were prepared as described above. TNS was prepared as a 300 uM stock solution in distilled water. LNP formulations were diluted to 0.1 mg/ml total lipid in 3 mL of buffered solutions containing 50 mM sodium citrate, 50 mM sodium phosphate, 50 mM sodium borate, and 30 mM sodium chloride where the pH ranged from 3 to 9. An aliquot of the TNS solution was added to give a final concentration of 0.1 mg/ml and following vortex mixing fluorescence intensity was measured at room temperature in a Molecular Devices Spectramax iD3 spectrometer using excitation and mission wavelengths of 325 nm and 435 nm. A sigmoidal best fit analysis was applied to the fluorescence data and the pKa value was measured as the pH giving rise to half-maximal fluorescent intensity.

[4] = Lipid nanoparticle size by dynamic light scattering (Malvern Zetasizer Nano ZS); format: physicochemical; conditions: LNP: cationic lipid/DSPC/cholesterol/PEG-lipid 50:10:38.5:1.5, hEPO mRNA
Protocol: as §1, §2

SMILES: CCCCCCC(CCCCCC)CNC(=O)CCCCCN(CCCCCC(=O)OCC(CCCCCC)CCCCCC)CCN(CCO)C1CCCCCC1 [Compound 141]
Encapsulation Efficiency ([1]; Table 3): 89.1% | Expression at 6 h (μg/ml) [2]: A (≥2) | Apparant Pka ([3]; Table 3): 6.766 | polydispersity ([4]; Table 3): 0.036 | size nm ([4]; Table 3): 71.93 nm

SMILES: CCCCCCCCC(CCCCCC)COC(=O)CCCCCN(CCCCCC(=O)OCC(CCCCCC)CCCCCCCC)CCN(C1CCCCC1)C1CC(O)C1 (stereo not shown) [Compound 92]
Encapsulation Efficiency ([1]; Table 3): 95.2% | Expression at 6 h (μg/ml) [2]: B (≥1 and <2) | Apparant Pka ([3]; Table 3): 6.331 | polydispersity ([4]; Table 3): 0.04 | size nm ([4]; Table 3): 66.94 nm

SMILES: CCCCCCC(CCCCCC)CC(=O)NCCCCCN(CCCCCOC(=O)CC(CCCCCC)CCCCCC)CCN(CCO)C1CC1 [Compound 153]
Encapsulation Efficiency ([1]; Table 3): 85.5% | Expression at 6 h (μg/ml) [2]: A (≥2) | Apparant Pka ([3]; Table 3): 6.621 | polydispersity ([4]; Table 3): 0.059 | size nm ([4]; Table 3): 107.4 nm

SMILES: CCCCCCCCC(CCCCCC)CC(=O)NCCCCCN(CCCCCNC(=O)CC(CCCCCC)CCCCCCCC)CCN(CCO)C1CCC1 (stereo not shown) [Compound 105]
Encapsulation Efficiency ([1]; Table 3): 93.3% | Expression at 6 h (μg/ml) [2]: A (≥2) | Apparant Pka ([3]; Table 3): 6.698 | polydispersity ([4]; Table 3): 0.042 | size nm ([4]; Table 3): 92.4 nm

SMILES: CCCCCCCCC(CCCCCC)CNC(=O)CCCCCN(CCCCCC(=O)NCC(CCCCCC)CCCCCCCC)CCN(CCC)C1CCC(O)CC1 (stereo not shown) [Compound 135]
Encapsulation Efficiency ([1]; Table 3): 85.6% | Expression at 6 h (μg/ml) [2]: C (≥0.1 and <1) | Apparant Pka ([3]; Table 3): 6.652 | polydispersity ([4]; Table 3): 0.035 | size nm ([4]; Table 3): 104.1 nm

SMILES: CCCCCC/C=C\COC(=O)CCCCCN(CCCC(=O)OC(CCCCCCC)CCCCCCC)CCN(CCO)C1CCC1 [Compound 46]
Encapsulation Efficiency ([1]; Table 3): 93.8% | Expression at 6 h (μg/ml) [2]: C (≥0.1 and <1) | Apparant Pka ([3]; Table 3): 6.307 | polydispersity ([4]; Table 3): 0.073 | size nm ([4]; Table 3): 110.4 nm

SMILES: CCCCCCCCC(CCCCCC)CC(=O)NCCCCCN(CCCCCNC(=O)CC(CCCCCC)CCCCCCCC)CCN(CCO)C1CCCCCC1 (stereo not shown) [Compound 116]
Encapsulation Efficiency ([1]; Table 3): 94.5% | Expression at 6 h (μg/ml) [2]: A (≥2) | Apparant Pka ([3]; Table 3): 6.795 | polydispersity ([4]; Table 3): 0.201 | size nm ([4]; Table 3): 79.28 nm

SMILES: CCCCCCCCCCCOC(=O)CCCCCN(CCCCCC(=O)NCC(CCCCCCCC)CCCCCCCC)CCN(CCO)C1CC1 [Compound 151]
Encapsulation Efficiency ([1]; Table 3): 94.0% | Expression at 6 h (μg/ml) [2]: C (≥0.1 and <1) | Apparant Pka ([3]; Table 3): 6.948 | polydispersity ([4]; Table 3): 0.061 | size nm ([4]; Table 3): 73.86 nm

SMILES: CCCCCCC(CCCCCC)CNC(=O)CCCCCN(CCCCCC(=O)OCC(CCCCCC)CCCCCC)CCN(CCO)C1CCCC1 [Compound 140]
Encapsulation Efficiency ([1]; Table 3): 83.4% | Expression at 6 h (μg/ml) [2]: A (≥2) | Apparant Pka ([3]; Table 3): 6.981 | polydispersity ([4]; Table 3): 0.075 | size nm ([4]; Table 3): 138.7 nm

SMILES: CCCCCCCCC(CCCCCC)CNC(=O)CCCCCN(CCCCCC(=O)OCC(CCCCCC)CCCCCCCC)CCN(CCC)C1CCC(O)CC1 (stereo not shown) [Compound 133]
Encapsulation Efficiency ([1]; Table 3): 90.6% | Expression at 6 h (μg/ml) [2]: A (≥2) | Apparant Pka ([3]; Table 3): 6.668 | polydispersity ([4]; Table 3): 0.083 | size nm ([4]; Table 3): 109.90 nm

The next lines start with results.

Encapsulation Efficiency ([1]; Table 3): 93.7% | Apparant Pka ([3]; Table 3): 6.46 | polydispersity ([4]; Table 3): 0.065 | size nm ([4]; Table 3): 82.91 nm
SMILES: CCCCC(CCCC)CCCCCC(=O)OCCCCCN(CCCCCOC(=O)CCCCCC(CCCC)CCCC)CCN(CCO)C1CCC1 [Compound 85]
Expression at 6 h (μg/ml) [2]: B (≥1 and <2)

Encapsulation Efficiency ([1]; Table 3): 94.10% | Apparant Pka ([3]; Table 3): 6.093 | polydispersity ([4]; Table 3): 0.073 | size nm ([4]; Table 3): 59.73 nm
SMILES: CCCCCCCCCC(CCCCCCCCC)COC(=O)CCCCCN(CCCCCC(=O)OCC(CCCCCCCCC)CCCCCCCCC)CCN(CCO)C1CCC1 [Compound 51]
Expression at 6 h (μg/ml) [2]: A (≥2)

Encapsulation Efficiency ([1]; Table 3): 90.06% | Apparant Pka ([3]; Table 3): 6.352 | polydispersity ([4]; Table 3): 0.038 | size nm ([4]; Table 3): 69.81 nm
SMILES: CCCCCCC(CCCCCC)COC(=O)CCCCCN(CCCCCC(=O)OCC(CCCCCC)CCCCCC)CCN(CCO)C1CCC1 [Compound 77]
Expression at 6 h (μg/ml) [2]: A (≥2)

Encapsulation Efficiency ([1]; Table 3): 95.4% | Apparant Pka ([3]; Table 3): 6.087 | polydispersity ([4]; Table 3): 0.077 | size nm ([4]; Table 3): 64.96 nm
SMILES: CCCCCCCCC(CCCCCC)CC(=O)COCCCCN(CCCCCOC(=O)CC(CCCCCC)CCCCCCCC)CCN(CCO)C1CC1 (stereo not shown) [Compound 24]
Expression at 6 h (μg/ml) [2]: C (≥0.1 and <1)

Encapsulation Efficiency ([1]; Table 3): 97.5% | Apparant Pka ([3]; Table 3): 6.049 | polydispersity ([4]; Table 3): 0.063 | size nm ([4]; Table 3): 83.85 nm
SMILES: CCCCCCCCC(CCCCCC)C(=O)OCCCCCCCCCN(CCCCCCCCCOC(=O)C(CCCCCC)CCCCCCCC)CCN(CCO)C1CCC1 (stereo not shown) [Compound 44]
Expression at 6 h (μg/ml) [2]: B (≥1 and <2)

Encapsulation Efficiency ([1]; Table 3): 93.8% | Apparant Pka ([3]; Table 3): 6.32 | size nm ([4]; Table 3): 76.56 nm
SMILES: CCCCCCC(CCCCCC)CCCCCC(=O)OCCCCCN(CCCCCOC(=O)CCCCCC(CCCCCC)CCCCCC)CCN(CCO)C1CCC1 [Compound 86]
Expression at 6 h (μg/ml) [2]: C (≥0.1 and <1)

Encapsulation Efficiency ([1]; Table 3): 94.90% | Apparant Pka ([3]; Table 3): 6.143 | polydispersity ([4]; Table 3): 0.085 | size nm ([4]; Table 3): 67.68 nm
SMILES: CCCCCCCCC(CCCCCCCC)COC(=O)CCCCCN(CCCCCC(=O)OCC(CCCCCCCC)CCCCCCCC)CCN(CCO)C1CCC1 [Compound 50]
Expression at 6 h (μg/ml) [2]: A (≥2)

Encapsulation Efficiency ([1]; Table 3): 94.1% | Apparant Pka ([3]; Table 3): 6.249 | polydispersity ([4]; Table 3): 0.075 | size nm ([4]; Table 3): 65.13 nm
SMILES: CCCCCCCC(CCCCCCC)COC(=O)CCCCCN(CCCCCC(=O)OCC(CCCCCCC)CCCCCCC)CCN(CCO)C1CCC1 [Compound 49]
Expression at 6 h (μg/ml) [2]: A (≥2)

Encapsulation Efficiency ([1]; Table 2): 98.1% | Apparant Pka ([3]; Table 2): 5.87 | polydispersity ([4]; Table 2): 0.068 | size nm ([4]; Table 2): 57.5 nm
SMILES: CCCCCCCCC(CCCCCC)COC(=O)CCCCCN(CCCCCC(=O)OCC(CCCCCC)CCCCCCCC)CCN(CCO)C1CC1 (stereo not shown) [Compound 4]
Expression at 6 h ([2]; Table 2): 0.48 µg/mL

Encapsulation Efficiency ([1]; Table 3): 94.50% | Apparant Pka ([3]; Table 3): 6.688 | polydispersity ([4]; Table 3): 0.013 | size nm ([4]; Table 3): 63.52 nm
SMILES: CCCCCCCCC(CCCCCCCC)CNC(=O)CCCCCN(CCCCCC(=O)OCC(CCCCCCCC)CCCCCCCC)CCN(CCO)C1CCCCC1 [Compound 138]
Expression at 6 h (μg/ml) [2]: A (≥2)

Encapsulation Efficiency ([1]; Table 3): 94.7% | Apparant Pka ([3]; Table 3): 6.406 | polydispersity ([4]; Table 3): 0.025 | size nm ([4]; Table 3): 87.68 nm
SMILES: CCCCCCCCCCCOC(=O)CCCCCN(CCCCCC(=O)OCC(CCCCCCCC)CCCCCCCC)CCN(CCO)C1CCCC1 [Compound 82]
Expression at 6 h (μg/ml) [2]: A (≥2)

Encapsulation Efficiency ([1]; Table 3): 93.2% | Apparant Pka ([3]; Table 3): 6.064 | polydispersity ([4]; Table 3): 0.083 | size nm ([4]; Table 3): 65.55 nm
SMILES: CCCCCCCCCCCOC(=O)CCCCCN(CCCCCC(=O)OCC(CCCCCCCC)CCCCCCCC)CCN(CCO)C1CCCCCC1 [Compound 84]
Expression at 6 h (μg/ml) [2]: B (≥1 and <2)
